Data taken from patent US20240238268A1, “TREATMENTS AND METHODS FOR TREATING ALZHEIMER'S DISEASE” (Board of Supervisors of Louisiana State University and …, priority 2021, published 2024).

Tests used:
[1] = target: T1, PRMT4 (Mus musculus, UniProt Q9WVG6); test: PRMT4 protein level in brain, capillary-based immunoassay; format: in vivo; settings: IP
T1 construct: Protein was extracted from dissected tissue in an extraction buffer; from tissue; host or cells: mouse brain (cortex, hippocampus, whole brain lysate) of 3xTg-AD and C57BL/6J mice
T1 sequence (Q9WVG6 1-608): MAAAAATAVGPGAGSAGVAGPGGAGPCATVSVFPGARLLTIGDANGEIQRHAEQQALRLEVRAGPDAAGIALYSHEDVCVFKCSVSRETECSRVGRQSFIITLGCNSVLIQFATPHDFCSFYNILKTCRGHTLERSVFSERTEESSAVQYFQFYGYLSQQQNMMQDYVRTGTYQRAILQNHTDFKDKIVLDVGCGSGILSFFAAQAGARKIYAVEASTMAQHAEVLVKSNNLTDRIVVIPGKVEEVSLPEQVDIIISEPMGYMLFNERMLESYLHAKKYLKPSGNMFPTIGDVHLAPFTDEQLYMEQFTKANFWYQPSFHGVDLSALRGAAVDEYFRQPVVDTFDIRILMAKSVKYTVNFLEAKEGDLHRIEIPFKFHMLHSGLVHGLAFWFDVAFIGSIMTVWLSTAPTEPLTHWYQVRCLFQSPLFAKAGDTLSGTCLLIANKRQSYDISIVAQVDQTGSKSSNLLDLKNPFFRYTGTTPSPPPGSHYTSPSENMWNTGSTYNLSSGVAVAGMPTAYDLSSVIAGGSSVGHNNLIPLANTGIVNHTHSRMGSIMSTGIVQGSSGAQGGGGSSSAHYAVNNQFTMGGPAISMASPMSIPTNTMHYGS
Protocol: Dosage, delivery of TP-064: PRMT4 specific inhibitor (TP-064, 30 mg/kg/day for 7 days, IP) was administered once daily for 7 or 21 days to young (4-6 months) and aged (9-12 months) C57BL/6J and 3xTg-AD, male and female mice. The inventors have found a dose response curve that evidences that 30 mg/kg (I.P.) of TP-064 decreases PRMT4 (FIG. 10A). TP-064 was dissolved in 100% DMSO, diluted in 0.9% saline (total injection volume=100 μL, ˜1.5% DMSO in mouse), greater than 5% DMSO can affect the brain.
Treatment regimen: Aged (9-12 month) females from both C57BL6/J as well as 3xTg-AD strains were randomly selected and placed in experimental groups. Treatment consisted of specific PRMT4 inhibitor TP-064 (Cat. No. 6008, Tocris, Minneapolis, MN) (Zhang, de Boer, van der Wel, Van Eck, & Hoekstra, 2021); (Zhong et al., 2018). The pharmacological mechanism of TP-064 has not been well-elucidated though it is thought to act as an allosteric inhibitor of the PRMT4 active site (Nakayama et al., 2018). Based on the pharmacokinetic data provided by the Structural Genomics Consortium (https://www.thesgc.org/), a dose of 30 mg/kg was selected. […] Final dose was calculated based on animal weight.
Capillary-phoresis immunoassay via ProteinSimple®: Quantification of all protein targets was achieved using Simple Western analysis in a Jess™ apparatus per the manufacturer's protocol (ProteinSimple, Bio-techne, Minneapolis, MN). […] Following homogenization and centrifugation (10,000×g, 5 min, 4° C.), protein concentration was determined in tissue protein supernatant samples using DC Protein Assay (Cat. No. 5000112, Bio-Rad Laboratories, Hercules, California) according to manufacturer instructions. […] Antibody diluent (ProteinSimple, Bio-techne, Minneapolis, MN) was used for all antibody dilutions as follows: PRMT4 (1:50, RRID: AB_2068436), PRMT6 (1:100, Cell Signaling Technology cat. 14641), eNOS (1:200, RRID: AB_10850618), nNOS (1:100, RRID: AB_2152488), iNOS (1:100, RRID: AB_10000625), DDAH2 (1:50, RRID: AB_2640442) Antibodies were detected using HRP-conjugated secondary anti-rabbit, and -mouse. […]

[2] = tested on: VCAM-1; test: VCAM-1 level, protein chip assay; format: in vivo, mouse; settings: aged 3xTg-AD female mice; cortex and hippocampus; 30 mg/kg, 7 days, IP
Protocol: (§1) FIGS. 19A-19F are six graphs showing PRMT4 inhibitor (TP-064) reduced ICAM-1, VCAM-1 and enhanced E-Cadherin protein levels in aged female 3xTg-AD mice. In FIGS. 19A-19D, aged 3xTg-AD female mice v. […] Adhesion molecules were assessed via protein chip assay in the cortex and hippocampus. * p<0.05 evaluated by one-way ANOVA with Tukey's post-hoc analyses.

[3] = tested on: E-Cadherin; test: E-Cadherin level, protein chip assay; format: in vivo, mouse; settings: aged 3xTg-AD female mice; cortex and hippocampus; 30 mg/kg, 7 days, IP
Protocol: as §1

[4] = tested on: NO3+NO2; test: Nitrate/Nitrite colorimetric assay (Griess reaction) of whole brain; format: in vivo, mouse; settings: 3xTg-AD mice; 30 mg/kg, IP, 7 days
Protocol: Nitrate/Nitrite colorimetric assay: Following euthanasia, whole brains were dissected from mice. Cold (4 °C) phosphate-buffered saline (PBS) and glass tissue grinders were used to homogenize the whole brain. Homogenates were centrifuged at 10,000×g for 20 min at 4° C. The supernatant was collected and filtered using 10 kDa ultrafilter (Cat. No. […]010, Millipore, Burlington, VA). Nitrate and nitrite were quantified per manufacturer's instructions (Cat. No. 780001, Cayman Chemical, Ann Arbor, MI). In summary, 80 μL of supernatant was loaded into a 96-well plate with 10 μL enzyme cofactor, and 10 μL nitrate reductase. Following 3 hrs of incubation, 100 μL Griess reagent was added, and plate was incubated for 30 min. The standard curve was provided by the manufacturer, and all sample concentrations were determined from the standard curve values. Changes in absorbance were measured at 550 nm. Final nitrate/nitrite levels were expressed in μM concentration.

[5] = aged 3xTg-AD female mice, 30 mg/kg for 7 days, normalized to total protein

## CNCCN1CCC(c2cc(CN(C)C(=O)c3cccc(Oc4ccccc4)c3)ccn2)CC1 [TP-064, N-Methyl-N-((2-(1-(2-(methylamino)ethyl)piperidin-4-yl)pyridin-4-yl)methyl)-3-phenoxybenzamide]
[1]; 3xTg-AD mice, 7.5, 15 and 30 mg/kg, 7 days, relative to untreated 3xTg-AD
  PRMT4 expression in whole brain lysate: reduced PRMT4 expression in whole brain lysate in a dose-dependent manner
[1]; [5]
  cortical PRMT4 protein level: reduced
  hippocampal PRMT4 protein level: reduced
[2]
  VCAM-1 level: decreased
[3]
  E-Cadherin level: elevated
[4]
  total NO3+NO2 in whole-brain lysate: 3.90 ± 0.667 µM
